# Data taken from US20060252807A1, “Novel ortho-terphenyl inhibitors of p38 kinase and methods of treating inflammatory disorders” (Kalypsys, Inc., priority 2005, published 2006).
# Biological target: T1, active p38 alpha enzyme (Upstate Biotechnology) (Homo sapiens, UniProt Q16539)
# T1 construct: purchased Upstate Biotechnology
# Experiment: p38α biochemical assay (ATP turnover, luminescent detection, Cambrex PKlight)
# Settings: p38α kinase; Table 1 Biological Activity
# Procedure, shortened: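 p38α + MapkapK2 (whole protein substrate) + 1.4 uM ATP final; Tris/MOPS buffer with MgCl2, CaCl2, EGTA, EDTA, glycerol, β-ME, BSA; 2 h at 30C; luminescent detection of remaining ATP.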
# T1 sequence (Q16539 whole entry): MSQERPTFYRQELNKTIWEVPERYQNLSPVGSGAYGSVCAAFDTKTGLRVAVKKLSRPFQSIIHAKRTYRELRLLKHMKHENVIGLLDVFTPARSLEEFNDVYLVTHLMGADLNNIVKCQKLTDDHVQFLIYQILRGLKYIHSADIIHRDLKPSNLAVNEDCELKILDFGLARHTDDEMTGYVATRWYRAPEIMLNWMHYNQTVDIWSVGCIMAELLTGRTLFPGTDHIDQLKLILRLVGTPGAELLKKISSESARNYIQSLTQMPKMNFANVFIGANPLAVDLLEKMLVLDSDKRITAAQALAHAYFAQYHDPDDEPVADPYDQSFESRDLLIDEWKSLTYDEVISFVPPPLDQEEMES
row,IC50 [nM],SMILES
1,> 1000,CC(C)NC(=O)c1csc(-c2c(-c3ccc(F)cc3)noc2CNCC(=O)c2ccccc2)n1 [Example 1491]
2,> 1000,CC(C)NC(=O)c1csc(-c2c(-c3ccc(F)cc3)noc2CNCCCNC(=O)OC(C)(C)C)n1 [Example 1492]
3,> 1000,CC(C)NC(=O)c1csc(-c2c(-c3ccc(F)cc3)noc2CNCc2ccc(C(F)(F)F)cc2)n1 [Example 1493]
4,> 1000,CC(C)NC(=O)c1csc(-c2c(-c3ccc(F)cc3)noc2CNCc2cccc(C(F)(F)F)c2)n1 [Example 1494]
5,> 1000,CC(C)NC(=O)c1csc(-c2c(-c3ccc(F)cc3)noc2CNCc2ccc(Cl)c(Cl)c2)n1 [Example 1495]
6,> 1000,CC(C)NC(=O)c1csc(-c2c(-c3ccc(F)cc3)noc2CNCc2ccc(Cl)cc2Cl)n1 [Example 1496]
7,> 1000,CC(C)NC(=O)c1csc(-c2c(-c3ccc(F)cc3)noc2CNC2CCN(Cc3ccccc3)C2)n1 (stereo not drawn) [Example 1497]
8,> 1000,COc1ccc(OC)c(CCNCc2onc(-c3ccc(F)cc3)c2-c2nc(C(=O)NC(C)C)cs2)c1 [Example 1498]
9,> 1000,CC(C)NC(=O)c1csc(-c2c(-c3ccc(F)cc3)noc2CNCc2ccc(N(C)C)cc2)n1 [Example 1499]
10,> 1000,COc1ccc(CNCc2onc(-c3ccc(F)cc3)c2-c2nc(C(=O)NC(C)C)cs2)cc1O [Example 1500]
11,> 1000,CC(C)NC(=O)c1csc(-c2c(-c3ccc(F)cc3)noc2CNC2CCN(Cc3ccccc3)CC2)n1 [Example 1501]
12,> 1000,CC(C)NC(=O)c1csc(-c2c(-c3ccc(F)cc3)noc2CNCc2ccccc2OC(F)(F)F)n1 [Example 1502]
13,> 1000,CC(C)NC(=O)c1csc(-c2c(-c3ccc(F)cc3)noc2CNCCc2ccc(S(N)(=O)=O)cc2)n1 [Example 1503]
14,> 1000,COc1ccc(C(=O)CNCc2onc(-c3ccc(F)cc3)c2-c2nc(C(=O)NC(C)C)cs2)cc1 [Example 1504]
15,> 1000,CC(C)NC(=O)c1csc(-c2c(-c3ccc(F)cc3)noc2CNCCc2ccc3c(c2)OCO3)n1 [Example 1505]
16,> 1000,CC(C)NC(=O)c1csc(-c2c(-c3ccc(F)cc3)noc2CNCCC(c2ccccc2)c2ccccc2)n1 [Example 1506]
17,> 1000,Cc1ccc(S(=O)(=O)NCCNCc2onc(-c3ccc(F)cc3)c2-c2nc(C(=O)NC(C)C)cs2)cc1 [Example 1507]
18,> 1000,CC(C)NC(=O)c1csc(-c2c(-c3ccc(F)cc3)noc2CN(C)C)n1 [Example 1508]
19,> 1000,CC(C)NC(=O)c1csc(-c2c(-c3ccc(F)cc3)noc2CN2CCOCC2)n1 [Example 1509]
20,> 1000,CCN(C)Cc1onc(-c2ccc(F)cc2)c1-c1nc(C(=O)NC(C)C)cs1 [Example 1511]
21,> 1000,C#CCN(C)Cc1onc(-c2ccc(F)cc2)c1-c1nc(C(=O)NC(C)C)cs1 [Example 1512]
22,> 1000,CCN(CC)Cc1onc(-c2ccc(F)cc2)c1-c1nc(C(=O)NC(C)C)cs1 [Example 1513]
23,≤ 1000,CCCN(C)Cc1onc(-c2ccc(F)cc2)c1-c1nc(C(=O)NC(C)C)cs1 [Example 1514]
24,≤ 1000,CC(C)NC(=O)c1csc(-c2c(-c3ccc(F)cc3)noc2CN(C)CCO)n1 [Example 1515]
25,> 1000,CC(C)NC(=O)c1csc(-c2c(-c3ccc(F)cc3)noc2CN(C)CCC#N)n1 [Example 1516]

row,IC50 [nM],SMILES
1,> 1000,CC(C)CN(C)Cc1onc(-c2ccc(F)cc2)c1-c1nc(C(=O)NC(C)C)cs1 [Example 1517]
2,> 1000,CCN(Cc1onc(-c2ccc(F)cc2)c1-c1nc(C(=O)NC(C)C)cs1)C(C)C [Example 1518]
3,> 1000,CCCCN(C)Cc1onc(-c2ccc(F)cc2)c1-c1nc(C(=O)NC(C)C)cs1 [Example 1519]
4,> 1000,CCN(CCO)Cc1onc(-c2ccc(F)cc2)c1-c1nc(C(=O)NC(C)C)cs1 [Example 1520]
5,> 1000,CC(C)NC(=O)c1csc(-c2c(-c3ccc(F)cc3)noc2CN2CCSC2)n1 [Example 1521]
6,> 1000,CC(C)NC(=O)c1csc(-c2c(-c3ccc(F)cc3)noc2CN2CCCCC2C)n1 (stereo not drawn) [Example 1522]
7,> 1000,CC1CCN(Cc2onc(-c3ccc(F)cc3)c2-c2nc(C(=O)NC(C)C)cs2)CC1 [Example 1523]
8,> 1000,CC(C)NC(=O)c1csc(-c2c(-c3ccc(F)cc3)noc2CN2CCN(C)CC2)n1 [Example 1524]
9,≤ 1000,CC(C)NC(=O)c1csc(-c2c(-c3ccc(F)cc3)noc2CN2CCCC2CO)n1 (stereo not drawn) [Example 1525]
10,> 1000,CC(C)NC(=O)c1csc(-c2c(-c3ccc(F)cc3)noc2CN2CCC[C@@H]2CO)n1 [Example 1526]
11,> 1000,CCCCN(CC)Cc1onc(-c2ccc(F)cc2)c1-c1nc(C(=O)NC(C)C)cs1 [Example 1527]
12,> 1000,CCCN(CCC)Cc1onc(-c2ccc(F)cc2)c1-c1nc(C(=O)NC(C)C)cs1 [Example 1528]
13,> 1000,CC(C)NC(=O)c1csc(-c2c(-c3ccc(F)cc3)noc2CN2CCSCC2)n1 [Example 1529]
14,> 1000,CC(C)NC(=O)c1csc(-c2c(-c3ccc(F)cc3)noc2CN(CCO)CCO)n1 [Example 1530]
15,> 1000,CC1CC(C)CN(Cc2onc(-c3ccc(F)cc3)c2-c2nc(C(=O)NC(C)C)cs2)C1 (stereo not drawn) [Example 1531]
16,> 1000,CC(C)NC(=O)c1csc(-c2c(-c3ccc(F)cc3)noc2CN(C)C2CCCCC2)n1 [Example 1532]
17,> 1000,CC(C)NC(=O)c1csc(-c2c(-c3ccc(F)cc3)noc2CN2C(C)CCCC2C)n1 (stereo not drawn) [Example 1533]
18,> 1000,CC(C)NC(=O)c1csc(-c2c(-c3ccc(F)cc3)noc2CN2CCC(N(C)C)C2)n1 (stereo not drawn) [Example 1534]
19,> 1000,CC(C)NC(=O)c1csc(-c2c(-c3ccc(F)cc3)noc2CN2C[C@@H](C)N[C@@H](C)C2)n1 [Example 1535]
20,> 1000,CC(C)NC(=O)c1csc(-c2c(-c3ccc(F)cc3)noc2CN2CCCC(CO)C2)n1 (stereo not drawn) [Example 1536]
21,> 1000,COC[C@@H]1CCCN1Cc1onc(-c2ccc(F)cc2)c1-c1nc(C(=O)NC(C)C)cs1 [Example 1537]
22,> 1000,CC(C)NC(=O)c1csc(-c2c(-c3ccc(F)cc3)noc2CN2CC(C)OC(C)C2)n1 (stereo not drawn) [Example 1538]
23,> 1000,CC(C)NC(=O)c1csc(-c2c(-c3ccc(F)cc3)noc2CN2CCCCC2CO)n1 (stereo not drawn) [Example 1539]
24,> 1000,CCN(CCCCO)Cc1onc(-c2ccc(F)cc2)c1-c1nc(C(=O)NC(C)C)cs1 [Example 1540]
25,> 1000,CC(C)NC(=O)c1csc(-c2c(-c3ccc(F)cc3)noc2CN2Cc3ccccc3C2)n1 [Example 1541]

row,IC50 [nM],SMILES
1,> 1000,CC(C)NC(=O)c1csc(-c2c(-c3ccc(F)cc3)noc2CN(C)Cc2ccccc2)n1 [Example 1542]
2,> 1000,CCN(Cc1onc(-c2ccc(F)cc2)c1-c1nc(C(=O)NC(C)C)cs1)C1CCCCC1 [Example 1543]
3,> 1000,CC(C)NC(=O)c1csc(-c2c(-c3ccc(F)cc3)noc2CN2CCC(C(N)=O)CC2)n1 [Example 1544]
4,> 1000,CC(=O)N[C@H]1CCN(Cc2onc(-c3ccc(F)cc3)c2-c2nc(C(=O)NC(C)C)cs2)C1 [Example 1545]
5,> 1000,CC(C)NC(=O)c1csc(-c2c(-c3ccc(F)cc3)noc2CN2CCCC(C(N)=O)C2)n1 (stereo not drawn) [Example 1547]
6,> 1000,CC(C)NC(=O)c1csc(-c2c(-c3ccc(F)cc3)noc2CN2CCCCC2CCO)n1 (stereo not drawn) [Example 1548]
7,> 1000,CC(C)NC(=O)c1csc(-c2c(-c3ccc(F)cc3)noc2CN2CCc3ccccc3C2)n1 [Example 1549]
8,> 1000,CCN(Cc1ccccc1)Cc1onc(-c2ccc(F)cc2)c1-c1nc(C(=O)NC(C)C)cs1 [Example 1550]
9,> 1000,CC(C)NC(=O)c1csc(-c2c(-c3ccc(F)cc3)noc2CN(C)CCc2ccccc2)n1 [Example 1552]
10,> 1000,CC(C)NC(=O)c1csc(-c2c(-c3ccc(F)cc3)noc2CN(C)CCc2ccccn2)n1 [Example 1553]
11,≤ 1000,CC(C)NC(=O)c1csc(-c2c(-c3ccc(F)cc3)noc2CN(C)CCc2ccccn2)n1 [Example 1554]
12,> 1000,CC(C)NC(=O)c1csc(-c2c(-c3ccc(F)cc3)noc2CN2CCCC3CCCCC32)n1 (stereo not drawn) [Example 1555]
13,> 1000,C=CCN(Cc1onc(-c2ccc(F)cc2)c1-c1nc(C(=O)NC(C)C)cs1)C1CCCCC1 [Example 1556]
14,> 1000,COC(=O)C1CCN(Cc2onc(-c3ccc(F)cc3)c2-c2nc(C(=O)NC(C)C)cs2)CC1 [Example 1557]
15,> 1000,CC(C)NC(=O)c1csc(-c2c(-c3ccc(F)cc3)noc2CN(Cc2ccccc2)C(C)C)n1 [Example 1558]
16,> 1000,CC(C)NC(=O)c1csc(-c2c(-c3ccc(F)cc3)noc2CN(CCO)Cc2ccccc2)n1 [Example 1559]
17,> 1000,CC(C)NC(=O)c1csc(-c2c(-c3ccc(F)cc3)noc2CN(C)CC(O)c2ccccc2)n1 (stereo not drawn) [Example 1560]
18,> 1000,CC(C)NC(=O)c1csc(-c2c(-c3ccc(F)cc3)noc2CN2CCC(O)(O)CC2)n1 [Example 1561]
19,> 1000,CCOC(=O)C1CCN(Cc2onc(-c3ccc(F)cc3)c2-c2nc(C(=O)NC(C)C)cs2)CC1 [Example 1562]
20,> 1000,CCOC(=O)C1CCCN(Cc2onc(-c3ccc(F)cc3)c2-c2nc(C(=O)NC(C)C)cs2)C1 (stereo not drawn) [Example 1563]
21,> 1000,CCOC(=O)N1CCN(Cc2onc(-c3ccc(F)cc3)c2-c2nc(C(=O)NC(C)C)cs2)CC1 [Example 1564]
22,> 1000,CC(C)NC(=O)c1csc(-c2c(-c3ccc(F)cc3)noc2CN(CCC#N)Cc2cccnc2)n1 [Example 1566]
23,> 1000,CC(C)NC(=O)c1csc(-c2c(-c3ccc(F)cc3)noc2CN2CCN(c3ccccc3)CC2)n1 [Example 1567]
24,> 1000,CC(C)NC(=O)c1csc(-c2c(-c3ccc(F)cc3)noc2CN2CCN(c3ccccn3)CC2)n1 [Example 1568]
25,> 1000,CCCCN(Cc1ccccc1)Cc1onc(-c2ccc(F)cc2)c1-c1nc(C(=O)NC(C)C)cs1 [Example 1569]
